Laboratory results taken from US4160829A, “Antibacterial 1,2,4-oxadiazolylacetamido cephalosporins” (Gist-Brocades N.V., priority 1972, dated 1979).
≈ marks a conversion by molar mass, not a printed value. Read-outs that look alike come from different tables or passages of the source.

Legend:
Bac.Subt.ATCC 6633 = assay: agar serial dilution test; assay type: cell-based, Bacillus subtilis; conditions: agar serial dilution, 24 hours, 37° C.; for MIC: Bacillus subtilis, ATCC6633, 24 h, read-out: minimal inhibitory concentration (MIC)
Staph.aureus A 321 = assay: agar serial dilution test; assay type: cell-based, Staphylococcus aureus; conditions: Staphylococcus aureus, A321, 24 h, agar serial dilution, 24 hours, 37° C.; read-out: minimal inhibitory concentration (MIC)
Staph.aureus A 2000 [1] = assay: agar serial dilution test; assay type: cell-based, Staphylococcus aureus; conditions: Staphylococcus aureus, A2000, 24 h, agar serial dilution, 24 hours, 37° C.; read-out: minimal inhibitory concentration (MIC)
Staph.aureus A 2001 [2] = assay: agar serial dilution test; assay type: cell-based, Staphylococcus aureus; conditions: Staphylococcus aureus, A2001, 24 h, agar serial dilution, 24 hours, 37° C.; read-out: minimal inhibitory concentration (MIC)
Strep. faec. L 80 = assay: agar serial dilution test; assay type: cell-based, Streptococcus faecalis; conditions: Enterococcus faecalis; agar serial dilution, 24 hours, 37° C.; read-out: minimal inhibitory concentration (MIC)
Dipl.pneum. L 54 = assay: agar serial dilution test; assay type: cell-based, Diplococcus pneumoniae; conditions: Streptococcus pneumoniae; agar serial dilution, 24 hours, 37° C.; read-out: minimal inhibitory concentration (MIC)
Past.multo. A 723 = assay: agar serial dilution test; assay type: cell-based, Pasteurella multocida; conditions: Pasteurella multocida; agar serial dilution, 24 hours, 37° C.; read-out: minimal inhibitory concentration (MIC)
Kleb.pneum. A 809 = assay: agar serial dilution test; assay type: cell-based, Klebsiella pneumoniae; conditions: Klebsiella pneumoniae; agar serial dilution, 24 hours, 37° C.; read-out: minimal inhibitory concentration (MIC)
Salm.dubl. P 43 = assay: agar serial dilution test; assay type: cell-based, Salmonella dublin; conditions: Salmonella enterica, read-out: minimal inhibitory concentration (MIC)
Salm.typh. R 127 = assay: agar serial dilution test; assay type: cell-based; conditions: 37° C.; for MIC: 24 h, read-out: minimal inhibitory concentration (MIC)
Esch.coli U 20 = assay: agar serial dilution test; assay type: cell-based, Escherichia coli; conditions: Escherichia coli
Shig.equir. T 3 = assay: agar serial dilution test; assay type: cell-based; conditions: 24 h, 37° C., read-out: minimal inhibitory concentration (MIC)
Pseud.aerug. H 10 = assay: agar serial dilution test; assay type: cell-based; conditions: agar serial dilution, 24 hours, 37° C.; read-out: minimal inhibitory concentration (MIC)
Pseud.aerug. 2396 = assay: agar serial dilution test; assay type: cell-based; conditions: agar serial dilution, 24 hours, 37° C.; read-out: minimal inhibitory concentration (MIC)
[3] = tested on: Pseud.aerug. Wyeth A 1058; assay: agar serial dilution test; assay type: cell-based; conditions: agar serial dilution, 24 hours, 37° C.; read-out: minimal inhibitory concentration (MIC)
Prot.rettg. A 821 = assay: agar serial dilution test; assay type: cell-based, Proteus rettgeri; conditions: Providencia rettgeri, 24 h, agar serial dilution, 24 hours, 37° C.; read-out: minimal inhibitory concentration (MIC)
Prot.mirab. H 3 = assay: agar serial dilution test; assay type: cell-based, Proteus mirabilis; conditions: Proteus mirabilis; agar serial dilution, 24 hours, 37° C.; read-out: minimal inhibitory concentration (MIC)
Prot.mirab. L 93 = assay: agar serial dilution test; assay type: cell-based, Proteus mirabilis; conditions: Proteus mirabilis
Prot.mirab. A 1200 = assay: agar serial dilution test; assay type: cell-based, Proteus mirabilis; conditions: agar serial dilution, 24 hours, 37° C.; for MIC: Proteus mirabilis, 24 h, read-out: minimal inhibitory concentration (MIC)
Prot.morg. 2241 = assay: agar serial dilution test; assay type: cell-based; conditions: 24 h, agar serial dilution, 24 hours, 37° C.; read-out: minimal inhibitory concentration (MIC)
Staph.aureus A 355 [4] = assay: micro serial dilution test; assay type: cell-based, Staphylococcus aureus; conditions: Staphylococcus aureus, A355; micro serial dilution (in brackets), about 18 hours, 30° C. or 37° C.; penicillinase-producing strain; read-out: minimal inhibitory concentration (MIC)
From the text: Two drops of a stock solution of the test compound (antibiotic) in a known concentration were brought into the first hole of a test plate with 9 numbered holes with a sterile Pasteur pipette. After rinsing this pipette three times with a physiological NaCl-solution, two drops of a stock solution of the test organism in a culture medium were brought in all the holes except for hole 8. In the first hole, the solution of the tested compound had been half diluted, then by stirring the liquid in the first hole and adding two drops of this mixture to the second hole and so on until hole 8, dilutions of the test compound solution were obtained in geometrical progression. The hole 9 contained no antibiotic and served for checking the growth of the testogranism in a blank medium. The test plate was incubated at 30° C. or 37° C. for about 18 hours.
^1 Penicillinase-producing strain

Staph.aureus A 2000 [5] = assay: micro serial dilution test; assay type: cell-based, Staphylococcus aureus; conditions: Staphylococcus aureus, A2000, 18 h, micro serial dilution (in brackets), about 18 hours, 30° C. or 37° C.; read-out: minimal inhibitory concentration (MIC)
Staph.aureus A 2001 [6] = assay: micro serial dilution test; assay type: cell-based, Staphylococcus aureus; conditions: Staphylococcus aureus, A2001, 18 h, micro serial dilution (in brackets), about 18 hours, 30° C. or 37° C.; read-out: minimal inhibitory concentration (MIC)
Haem.infl. A 1030 = assay: micro serial dilution test; assay type: cell-based; conditions: micro serial dilution (in brackets), about 18 hours, 30° C. or 37° C.; for MIC: 18 h, read-out: minimal inhibitory concentration (MIC)
Staph.aureus A 355 [7] = assay: agar serial dilution test; conditions: Staphylococcus aureus, A355, 24 h, read-out: minimal inhibitory concentration (MIC), agar serial dilution, 24 hours, 37° C.; penicillinase-producing strain
Strep.haem. A 266 = assay: agar serial dilution test; assay type: cell-based, Streptococcus haemolyticus; conditions: Streptococcus; agar serial dilution, 24 hours, 37° C.; read-out: minimal inhibitory concentration (MIC)
[8] = agar serial dilution, 24 hours, 37° C.
[9] = U20, agar serial dilution, 24 hours, 37° C., read-out: minimal inhibitory concentration (MIC)
[10] = agar serial dilution, 24 hours, 37° C., read-out: minimal inhibitory concentration (MIC)

| SMILES | MIC (Staph.aureus A 321) [µg/mL] | MIC (Staph.aureus A 2000 [1]) [µg/mL] | MIC (Staph.aureus A 2001 [2]) [µg/mL] | MIC (Strep. faec. L 80) [µg/mL] | MIC (Dipl.pneum. L 54) [µg/mL] | MIC (Past.multo. A 723) [µg/mL] | MIC (Kleb.pneum. A 809) [µg/mL] | MIC (Salm.dubl. P 43; [8]) [µg/mL] | MIC (Shig.equir. T 3) [µg/mL] | MIC (Pseud.aerug. H 10) [µg/mL] | MIC (Pseud.aerug. 2396) [µg/mL] | MIC [3] [µg/mL] | MIC (Prot.rettg. A 821) [µg/mL] | MIC (Prot.mirab. H 3) [µg/mL] | MIC (Prot.morg. 2241) [µg/mL] | MIC (Staph.aureus A 355 [4]) [µg/mL] | MIC (Staph.aureus A 2000 [5]) [µg/mL] | MIC (Staph.aureus A 2001 [6]) [µg/mL] | MIC (Staph.aureus A 355 [7]) [µg/mL] | MIC (Bac.Subt.ATCC 6633) [µg/mL] | other results |
| --- | --- | --- | --- | --- | --- | --- | --- | --- | --- | --- | --- | --- | --- | --- | --- | --- | --- | --- | --- | --- | --- |
| CC(=O)OCC1=C(C(=O)O)N2C(=O)[C@@H](NC(=O)Cc3nc(C)no3)[C@H]2SC1 [Compound D, sodium-7-[(3-methyl-1,2,4-oxadiazol-5-yl)-acetamido]-3-acetoxymethyl-3-cephem-4-carboxylate] | 0.5 | 0.75 | 0.75 | 50 | 0.75 | 1.5 | 3 | 3 | 6 | > 100 | > 100 | > 100 | 1.5 | 25 | > 100 | 0.6 | 1 | 0.6 | 0.5 |  | minimal inhibitory concentration (MIC) (Bac.Subt.ATCC 6633): 0.12 µg/mL; minimal inhibitory concentration (MIC) (Salm.typh. R 127; 24 hours): 12.5 µg/mL; MIC (Esch.coli U 20; U20, 24 h, read-out: minimal inhibitory concentration (MIC), agar serial dilution, 24 hours, 37° C.): 12.5 µg/mL; MIC (Prot.mirab. L 93; 24 h, read-out: minimal inhibitory concentration (MIC), agar serial dilution, 24 hours, 37° C.): 12.5 µg/mL; minimal inhibitory concentration (MIC) (Prot.mirab. A 1200): 25 µg/mL; minimal inhibitory concentration (MIC) (Haem.infl. A 1030): 30 µg/mL |
| Cc1noc(CC(=O)N[C@@H]2C(=O)N3[C@@H]2SC(C)(C)[C@@H]3C(=O)O)n1 [Example 11B, sodium 6-[(3-methyl-1,2,4-oxadiazol-5-yl)-acetamido]-penicillanate H2 O] | 0.12 | 50 | 3 | 6 | 0.25 | 1 | > 100 |  | 3 | > 100 | > 100 | > 100 | 50 | 50 | > 100 | > 12 | > 12 | 2.5 | 50 | 0.03 | MIC (Strep.haem. A 266): 0.03 µg/mL; MIC (Salm.dubl. P 43; 24 h): 12.5 µg/mL; MIC (Salm.typh. R 127): 12.5 µg/mL; MIC (Esch.coli U 20; [9]): 50 µg/mL; MIC (Prot.mirab. L 93; [10]): 3 µg/mL; MIC (Prot.mirab. A 1200): > 100 µg/mL; MIC (Haem.infl. A 1030): 125 µg/mL |
| COC(=O)C(C(=O)N[C@@H]1C(=O)N2C(C(=O)O)=C(COC(C)=O)CS[C@H]12)c1nc(C)no1 (stereo partly drawn) [Example 38, 7-[3-methyl-α-carbomethoxy-1,2,4-oxadiazol-5-yl-acetamido]cephalosporanic acid] | 25 (≈ 55 µM) | 25 (≈ 55 µM) | 25 (≈ 55 µM) | > 100 | 12.5 (≈ 27.5 µM) | 12.5 (≈ 27.5 µM) | 50 (≈ 110 µM) | 100 (≈ 220 µM) | 50 (≈ 110 µM) | > 100 | > 100 | > 100 | 25 (≈ 55 µM) | 100 (≈ 220 µM) | > 100 | 23 (≈ 50.6 µM) | 23 (≈ 50.6 µM) | 15 (≈ 33 µM) | 25 (≈ 55 µM) | 6 (≈ 13.2 µM) | MIC (Salm.typh. R 127): 100 µg/mL (≈ 220 µM); MIC (Esch.coli U 20; [9]): > 100 µg/mL; MIC (Prot.mirab. L 93; [10]): 50 µg/mL (≈ 110 µM); MIC (Prot.mirab. A 1200): > 100 µg/mL; MIC (Haem.infl. A 1030): 125 µg/mL (≈ 275 µM) |
